Assay results taken from the NIST ThermoML archive (doi:10.1021/je7005067).
± gives the expanded uncertainty stated by the source.

Conditions: Liquid

CCCCC(CC)COC(=O)c1ccccc1C(=O)OCC(CC)CCCC (configuration not stated) [bis(2-ethylhexyl) 1,2-benzenedicarboxylate]
Conditions | vapor or sublimation pressure [kPa]
423.15 K | 0.008 ± 0.0023
433.15 K | 0.017 ± 0.0031
443.15 K | 0.0326 ± 0.0051
448.15 K | 0.0419 ± 0.0065
453.15 K | 0.0655 ± 0.01
463.15 K | 0.1154 ± 0.018
473.15 K | 0.1874 ± 0.029
